According to PubChem BioAssay (NCI):
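Protocol summary: plate cells (96-well), add compound at 5 concentrations, incubate 48 h, interpolate endpoints linearly. The concentration for 50% growth inhibition is given as GI50. TGI marks complete inhibition of growth.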

Key:
Assay in all cases: growth of human tumour cells (NCI), 48 h
HOP-92 NSCLC = tested on: HOP-92 NSCLC
SK-MEL-2 melanoma = tested on: SK-MEL-2 melanoma
SN12C renal = tested on: SN12C renal
SNB-75 CNS = tested on: SNB-75 CNS
DU-145 prostate = tested on: DU-145 prostate
M14 melanoma = tested on: M14 melanoma
NCI-H23 lung = tested on: NCI-H23 lung
MALME-3M melanoma = tested on: MALME-3M melanoma
BT-549 breast = tested on: BT-549 breast
LOX IMVI melanoma = tested on: LOX IMVI melanoma

Work on `CC1CC2(C)CC(=O)C1C1C(=O)N(CCN3CCCCC3)C(=O)C12` (stereo not given) yielded a GI50 (HOP-92 NSCLC) of over 100 µM, a TGI (HOP-92 NSCLC) of over 100 µM and a GI50 (SK-MEL-2 melanoma) of over 100 µM. The TGI (SK-MEL-2 melanoma) was over 100 µM, the GI50 (SN12C renal) was over 100 µM and the TGI (SN12C renal) was over 100 µM. The GI50 (SNB-75 CNS) was over 100 µM, the TGI (SNB-75 CNS) was over 100 µM and the GI50 (DU-145 prostate) was over 100 µM. For the same compound, the TGI (DU-145 prostate) was over 100 µM, the GI50 (M14 melanoma) was over 100 µM and the TGI (M14 melanoma) was over 100 µM. The GI50 (NCI-H23 lung) was over 100 µM, the TGI (NCI-H23 lung) was over 100 µM and the GI50 (MALME-3M melanoma) was over 100 µM. It also gave a TGI (MALME-3M melanoma) of over 100 µM, a GI50 (BT-549 breast) of over 100 µM and a TGI (BT-549 breast) of over 100 µM. It also gave a GI50 (LOX IMVI melanoma) of over 100 µM and a TGI (LOX IMVI melanoma) of over 100 µM.

In the case of `C=[CH][Sn]([CH]=C)([O]c1cccc2cccnc12)[O]c1cccc2cccnc12`, the GI50 (HOP-92 NSCLC) is reported as 6.52 µM, the TGI (HOP-92 NSCLC) is reported as 19.5 µM and the GI50 (SK-MEL-2 melanoma) is reported as 1.72 µM. It also gave a TGI (SK-MEL-2 melanoma) of 7.87 µM, a GI50 (SN12C renal) of 4.45 µM and a TGI (SN12C renal) of 17.5 µM. The GI50 (SNB-75 CNS) was 3.95 µM, the TGI (SNB-75 CNS) was 14 µM and the GI50 (DU-145 prostate) was 7.29 µM. For the same compound, the TGI (DU-145 prostate) was 23.2 µM, the GI50 (M14 melanoma) was 2.11 µM and the TGI (M14 melanoma) was 5.92 µM. The GI50 (NCI-H23 lung) was 2.32 µM, the TGI (NCI-H23 lung) was 6.87 µM and the GI50 (MALME-3M melanoma) was 3.35 µM. It also gave a TGI (MALME-3M melanoma) of 10.3 µM, a GI50 (BT-549 breast) of 2.78 µM and a TGI (BT-549 breast) of 31.5 µM. For the same compound, the GI50 (LOX IMVI melanoma) was 1.46 µM and the TGI (LOX IMVI melanoma) was 4.86 µM.

In the case of `O=C(Nc1ccccc1C(=O)N/N=C(\c1ccccc1)c1ccccn1)c1ccc(F)cc1`, the GI50 (HOP-92 NSCLC) is reported as 1.42 µM, the TGI (HOP-92 NSCLC) is reported as over 100 µM and the GI50 (SK-MEL-2 melanoma) is reported as 7.01 µM. The TGI (SK-MEL-2 melanoma) was over 100 µM, the GI50 (SN12C renal) was 0.584 µM and the TGI (SN12C renal) was over 100 µM. It also gave a GI50 (SNB-75 CNS) of 4.81 µM, a TGI (SNB-75 CNS) of over 100 µM and a GI50 (DU-145 prostate) of 0.351 µM. The TGI (DU-145 prostate) was over 100 µM, the GI50 (M14 melanoma) was 0.276 µM and the TGI (M14 melanoma) was 3.89 µM. The GI50 (NCI-H23 lung) was 0.595 µM, the TGI (NCI-H23 lung) was over 100 µM and the GI50 (MALME-3M melanoma) was 0.767 µM. For the same compound, the TGI (MALME-3M melanoma) was over 100 µM, the GI50 (BT-549 breast) was 0.436 µM and the TGI (BT-549 breast) was over 26.7 µM. The GI50 (LOX IMVI melanoma) was 0.247 µM and the TGI (LOX IMVI melanoma) was over 100 µM.

`Oc1ccc(Cl)cc1Cc1cc(Cl)ccc1O` gave a GI50 (HOP-92 NSCLC) of 0.801 µM, a TGI (HOP-92 NSCLC) of 3.58 µM and a GI50 (SK-MEL-2 melanoma) of 2.21 µM. The TGI (SK-MEL-2 melanoma) was 5.02 µM, the GI50 (SN12C renal) was 2.8 µM and the TGI (SN12C renal) was 10.7 µM. The GI50 (SNB-75 CNS) was 4.09 µM, the TGI (SNB-75 CNS) was 24.2 µM and the GI50 (DU-145 prostate) was 3.81 µM. The TGI (DU-145 prostate) was 13.8 µM, the GI50 (M14 melanoma) was 3.31 µM and the TGI (M14 melanoma) was 10.5 µM. For the same compound, the GI50 (NCI-H23 lung) was 2.04 µM, the TGI (NCI-H23 lung) was 5.79 µM and the GI50 (MALME-3M melanoma) was 2.55 µM. The TGI (MALME-3M melanoma) was 6.35 µM, the GI50 (BT-549 breast) was 2.6 µM and the TGI (BT-549 breast) was 8.76 µM. It also gave a GI50 (LOX IMVI melanoma) of 2.82 µM and a TGI (LOX IMVI melanoma) of 8.51 µM.

`O=c1[nH]c2ccccc2n1-c1n[nH]c2ccccc12` gave a GI50 (HOP-92 NSCLC) of 4.5 µM, a TGI (HOP-92 NSCLC) of 58.2 µM and a GI50 (SK-MEL-2 melanoma) of 29.3 µM. It also gave a TGI (SK-MEL-2 melanoma) of over 100 µM, a GI50 (SN12C renal) of 37.2 µM and a TGI (SN12C renal) of over 100 µM. It also gave a GI50 (SNB-75 CNS) of 41.9 µM, a TGI (SNB-75 CNS) of over 100 µM and a GI50 (DU-145 prostate) of 34 µM. For the same compound, the TGI (DU-145 prostate) was over 100 µM, the GI50 (M14 melanoma) was 29.2 µM and the TGI (M14 melanoma) was 88.2 µM. It also gave a GI50 (NCI-H23 lung) of 38.5 µM, a TGI (NCI-H23 lung) of over 100 µM and a GI50 (MALME-3M melanoma) of 26.3 µM. For the same compound, the TGI (MALME-3M melanoma) was 82.9 µM, the GI50 (BT-549 breast) was 30.5 µM and the TGI (BT-549 breast) was over 100 µM. It also gave a GI50 (LOX IMVI melanoma) of 17.4 µM and a TGI (LOX IMVI melanoma) of 52.5 µM.

With `C(/Cc1ccc2c(c1)OCO2)=N\NC1=NCCCN1` the TGI (HOP-92 NSCLC) was over 100 µM, the TGI (SK-MEL-2 melanoma) was over 100 µM and the TGI (SN12C renal) was over 100 µM. For the same compound, the TGI (SNB-75 CNS) was 81.1 µM, the TGI (DU-145 prostate) was over 100 µM and the TGI (M14 melanoma) was over 100 µM. The TGI (NCI-H23 lung) was over 100 µM, the TGI (MALME-3M melanoma) was over 100 µM and the TGI (BT-549 breast) was over 100 µM. For the same compound, the TGI (LOX IMVI melanoma) was over 100 µM.

`CS(=O)(=O)NC12CCC(c3ccccc31)c1ccccc12` showed a TGI (HOP-92 NSCLC) of over 100 µM, a TGI (SK-MEL-2 melanoma) of over 100 µM and a TGI (SN12C renal) of over 100 µM. The TGI (SNB-75 CNS) was over 100 µM, the TGI (DU-145 prostate) was over 100 µM and the TGI (M14 melanoma) was over 100 µM. For the same compound, the TGI (NCI-H23 lung) was over 100 µM, the TGI (MALME-3M melanoma) was over 100 µM and the TGI (BT-549 breast) was over 100 µM. For the same compound, the TGI (LOX IMVI melanoma) was over 100 µM.

`N#CC1C=Cc2ccccc2N1C(=O)Oc1ccccc1` (stereo not given) showed a TGI (HOP-92 NSCLC) of over 100 µM, a TGI (SK-MEL-2 melanoma) of 64.3 µM and a TGI (SN12C renal) of over 100 µM. It also gave a TGI (SNB-75 CNS) of over 100 µM, a TGI (DU-145 prostate) of 93.8 µM and a TGI (M14 melanoma) of over 100 µM. For the same compound, the TGI (NCI-H23 lung) was over 100 µM, the TGI (MALME-3M melanoma) was over 100 µM and the TGI (BT-549 breast) was over 100 µM. It also gave a TGI (LOX IMVI melanoma) of over 100 µM.

`CC1(C)OC2C(COS(N)(=O)=O)SC(n3cnc4cncnc43)C2O1` (stereo not given) gave a GI50 (HOP-92 NSCLC) of over 100 µM, a TGI (HOP-92 NSCLC) of over 100 µM and a GI50 (SK-MEL-2 melanoma) of over 100 µM. It also gave a TGI (SK-MEL-2 melanoma) of over 100 µM, a GI50 (SN12C renal) of over 100 µM and a TGI (SN12C renal) of over 100 µM. The GI50 (SNB-75 CNS) was over 100 µM, the TGI (SNB-75 CNS) was over 100 µM and the GI50 (DU-145 prostate) was over 100 µM. The TGI (DU-145 prostate) was over 100 µM, the GI50 (M14 melanoma) was over 100 µM and the TGI (M14 melanoma) was over 100 µM. It also gave a GI50 (NCI-H23 lung) of over 100 µM, a TGI (NCI-H23 lung) of over 100 µM and a GI50 (MALME-3M melanoma) of over 100 µM. The TGI (MALME-3M melanoma) was over 100 µM, the GI50 (BT-549 breast) was over 100 µM and the TGI (BT-549 breast) was over 100 µM. The GI50 (LOX IMVI melanoma) was over 100 µM and the TGI (LOX IMVI melanoma) was over 100 µM.

Work on `C/C=C1\C(=O)OC2CCN3CCC(COC(=O)C(C)(O)C(C)C1O)C23` (stereo not given) yielded a TGI (HOP-92 NSCLC) of over 100 µM, a TGI (SK-MEL-2 melanoma) of over 100 µM and a TGI (SN12C renal) of over 100 µM. It also gave a TGI (SNB-75 CNS) of over 100 µM, a TGI (DU-145 prostate) of over 100 µM and a TGI (M14 melanoma) of over 100 µM. For the same compound, the TGI (NCI-H23 lung) was over 100 µM, the TGI (MALME-3M melanoma) was over 100 µM and the TGI (BT-549 breast) was over 100 µM. The TGI (LOX IMVI melanoma) was over 100 µM.

In the case of `CC1CCC2N(C1)CC1C3(O)CC45OC6(O)C(O)CCC4(C)C6CCC5C3(O)CC(O)C1(O)C2(C)O` (stereo not given), the TGI (HOP-92 NSCLC) is reported as over 100 µM, the TGI (SK-MEL-2 melanoma) is reported as over 100 µM and the TGI (SN12C renal) is reported as over 100 µM. The TGI (SNB-75 CNS) was over 100 µM, the TGI (DU-145 prostate) was over 100 µM and the TGI (M14 melanoma) was over 100 µM. It also gave a TGI (NCI-H23 lung) of over 100 µM, a TGI (MALME-3M melanoma) of over 100 µM and a TGI (BT-549 breast) of over 100 µM. The TGI (LOX IMVI melanoma) was over 100 µM.
